Assay results taken from ChEMBL document CHEMBL4402583, “Rational Substitution of ε-Lysine for α-Lysine Enhances the Cell and Membrane Selectivity of Pore-Forming Melittin” (J Med Chem, 2020).
Converted amounts (≈) assume the structure as drawn.

Experiments:
Enterococcus faecalis [1] = assay: Antibacterial activity against Mel-5-resistant vancomycin-resistant Enterococcus faecalis 1010 assessed as reduction in bacterial growth measured after 24 hrs by broth microdilution method; format: functional; details: Enterococcus faecalis, 1010, 24 h
Staphylococcus aureus [2] = assay: In vivo antibacterial activity against Staphylococcus aureus ATCC 29213 infected in C57BL/6 mouse assessed as reduction in bacterial burden by measuring log10 CFU/cornea at 0.3% administered topically as two times on day 1, four times on day 2 and two times on day 3 measured at 48 hrs post-final dose by 10 fold serial dilution method (reference value: 6.5 +/- 0.7 log10CFU); format: functional
Enterococcus faecalis [3] = assay: Ratio of MIC for vancomycin-resistant Enterococcus faecalis 1010 to MIC for Mel-5-resistant vancomycin-resistant Enterococcus faecalis 1010 incubated for 24 hrs by broth microdilution method; format: functional
Enterococcus faecalis [4] = assay: Antibacterial activity against vancomycin-resistant Enterococcus faecalis 1010 assessed as reduction in bacterial growth measured after 24 hrs by broth microdilution method; format: functional; details: Enterococcus faecalis, 1010, 24 h
Enterococcus faecalis [5] = assay: Ratio of MIC for Mel-5-resistant vancomycin-resistant Enterococcus faecalis 1010 to MIC for vancomycin-resistant Enterococcus faecalis 1010 incubated for 24 hrs by broth microdilution method; format: functional
Enterococcus faecalis [6] = assay: Resistance index, ratio of MIC for vancomycin-resistant Enterococcus faecalis 1010 measured after 14 serial passages by broth microdilution method to MIC for vancomycin-resistant Enterococcus faecalis 1010 incubated for 24 hrs by broth microdilution method; format: functional
NHDF [7] = assay: Cytotoxicity against HDF cells assessed as reduction in metabolic activity at 500 ug/ml incubated for 24 hrs by MTS assay relative to control; format: ADME, cell-based; parameters: scale not given: the % may be the effect or the level left; details: human
[8] = Cytotoxicity against HDF cells assessed as minimum cytotoxic concentration incubated for 24 hrs by MTS assay; format: cell-based; details: human, HDF cells (NHDF, human dermal fibroblasts)
Pseudomonas aeruginosa = assay: Antibacterial activity against Pseudomonas aeruginosa assessed as reduction in bacterial growth incubated for 24 hrs by broth microdilution method; format: functional
Staphylococcus aureus [9] = assay: Antibacterial activity against Staphylococcus aureus assessed as reduction in bacterial growth incubated for 24 hrs by broth microdilution method; format: functional
Candida albicans = assay: Antifungal activity against Candida albicans assessed as reduction in fungal growth incubated for 24 hrs by broth microdilution method; format: functional
[10] = Cytotoxicity against HDF cells assessed as cell viability at 125 ug/ml incubated for 24 hrs by MTS assay relative to control; format: cell-based; details: human, HDF cells (NHDF, human dermal fibroblasts); read-out: Activity
[11] = Cytotoxicity against HDF cells assessed as cell viability at 250 ug/ml incubated for 24 hrs by MTS assay relative to control; format: cell-based; details: human, HDF cells (NHDF, human dermal fibroblasts); read-out: Activity
Lipid bilayer [12] = assay: Induction of pore formation in negatively charged DOPE/DOPG large unilamellar vesicles assessed as calcein release at 0.39 to 50 uM measured for 60 mins by fluorescence based assay
Lipid bilayer [13] = assay: Induction of pore formation in zwitterionic DOPC/cholesterol large unilamellar vesicles assessed as calcein release at 0.39 to 50 uM measured for 60 mins by fluorescence based assay
Staphylococcus aureus [14] = assay: Antibacterial activity against methicillin-sensitive Staphylococcus aureus assessed as reduction in bacterial growth incubated for 24 hrs by broth microdilution method; format: functional
Staphylococcus aureus [15] = assay: Antibacterial activity against methicillin-resistance Staphylococcus aureus assessed as reduction in bacterial growth incubated for 24 hrs by broth microdilution method; format: functional
Enterococcus = assay: Antibacterial activity against vancomycin-resistant Enterococcus assessed as reduction in bacterial growth incubated for 24 hrs by broth microdilution method; format: functional
Acinetobacter baumannii = assay: Antibacterial activity against multidrug-resistant Acinetobacter baumannii assessed as reduction in bacterial growth incubated for 24 hrs by broth microdilution method; format: functional
Enterobacteriaceae = assay: Antibacterial activity against Carbapenem-Resistant Enterobacteriaceae assessed as reduction in bacterial growth incubated for 24 hrs by broth microdilution method; format: functional
NHDF [16] = assay: Cytotoxicity against HDF cells at 250 ug/ml incubated for 24 hrs by Alexa Fluor […] phalloidin-FITC/Hoescht dye staining based fluorescence microscopic analysis; format: cell-based; details: human
[17] = Cytotoxicity against HDF cells assessed as minimum cytotoxic concentration incubated for 24 hrs by Alexa Fluor […] phalloidin-FITC/Hoescht dye staining based fluorescence microscopic analysis; format: cell-based; details: human, HDF cells (NHDF, human dermal fibroblasts)

## COc1c(N2CCNC(C)C2)c(F)cc2c(=O)c(C(=O)O)cn(C3CC3)c12 (stereo not given) [GATIFLOXACIN]
Enterococcus faecalis [1]
  MIC: 8 µg/mL (≈ 21.3 µM)
Staphylococcus aureus [2]
  Activity: 2.5 log10CFU
Enterococcus faecalis [3]
  Ratio: 8
Enterococcus faecalis [4]
  MIC: 4 µg/mL (≈ 10.7 µM)

## CCCCCCCCCC(=O)N[C@@H](Cc1c[nH]c2ccccc12)C(=O)N[C@H](CC(N)=O)C(=O)N[C@@H](CC(=O)O)C(=O)N[C@@H]1C(=O)NCC(=O)N[C@@H](CCCN)C(=O)N[C@@H](CC(=O)O)C(=O)N[C@H](C)C(=O)N[C@@H](CC(=O)O)C(=O)NCC(=O)N[C@H](CO)C(=O)N[C@@H]([C@@H](C)CC(=O)O)C(=O)N[C@@H](CC(=O)c2ccccc2N)C(=O)O[C@@H]1C
Enterococcus faecalis [1]
  MIC: > 512 µg/mL
Enterococcus faecalis [5]
  Ratio: >128
Enterococcus faecalis [6]
  Ratio: 4
Enterococcus faecalis [4]
  MIC: 64 µg/mL (≈ 39.5 µM)

## CC[C@H](C)[C@H](NC(=O)CN)C(=O)NCC(=O)N[C@@H](C)C(=O)N[C@H](C(=O)N[C@@H](CC(C)C)C(=O)NCCC[C@@H](CN)C(=O)N[C@H](C(=O)N[C@@H](CC(C)C)C(=O)N[C@H](C(=O)N[C@H](C(=O)NCC(=O)N[C@@H](CC(C)C)C(=O)N1CCC[C@H]1C(=O)N[C@@H](C)C(=O)N[C@@H](CC(C)C)C(=O)N[C@H](C(=O)N[C@@H](CO)C(=O)N[C@@H](Cc1c[nH]c2ccccc12)C(=O)N[C@H](C(=O)N[C@@H](CCCCN)C(=O)N[C@@H](CCCNC(=N)N)C(=O)N[C@@H](CCCCN)C(=O)N[C@@H](CCCNC(=N)N)C(=O)N[C@@H](CCC(N)=O)C(=O)N[C@@H](CCC(N)=O)C(N)=O)[C@@H](C)CC)[C@@H](C)CC)[C@@H](C)O)[C@@H](C)O)C(C)C)C(C)C
NHDF [7]
  Activity: 100%
[8]
  MCC at 24 h: > 125 µg/mL
Pseudomonas aeruginosa
  MIC: 8 to 64 µg/mL (≈ 2.81 to 22.5 µM)
  MIC50: 16 µg/mL (≈ 5.62 µM)
Staphylococcus aureus [9]
  MIC: 8 to 32 µg/mL (≈ 2.81 to 11.2 µM)
Candida albicans
  MIC: 4 to 8 µg/mL (≈ 1.41 to 2.81 µM)
  MIC50: 4 µg/mL (≈ 1.41 µM)
[10]
  viability at 24 h, 125 ug/ml: 112%
[11]
  viability at 24 h, 250 ug/ml: 32.4%
Lipid bilayer [12]
  Activity: 41.8%
Lipid bilayer [13]
  Activity: 7.8%
Staphylococcus aureus [14]
  MIC: 4 to 32 µg/mL (≈ 1.41 to 11.2 µM)
  MIC50: 16 µg/mL (≈ 5.62 µM)
Staphylococcus aureus [15]
  MIC50: 16 µg/mL (≈ 5.62 µM)
Enterococcus
  MIC: 4 to 32 µg/mL (≈ 1.41 to 11.2 µM)
  MIC50: 8 µg/mL (≈ 2.81 µM)
Acinetobacter baumannii
  MIC: 2 to 4 µg/mL (≈ 0.703 to 1.41 µM)
  MIC50: 2 µg/mL (≈ 0.703 µM)
Enterobacteriaceae
  MIC: 4 to 64 µg/mL (≈ 1.41 to 22.5 µM)
  MIC50: 8 µg/mL (≈ 2.81 µM)
NHDF [16]
  Activity: Toxic
[17]
  MCC at 24 h: > 125 µg/mL
